The values below are quoted from earlier work in US20160374909A9, “Treating Cariogenic diseased oral biofilm with elevated pH” (Dental Alliance Holdings, LLC dba Oral Bio Tech, priority 2006, published 2016).

One data set relates to Mutans streptococci. Conditions: rinse or varnish.
The subject of the next data set is Lactobacilli. The following applies: rinse or varnish.

For the compound `[H]/N=C(\N/C(=N/[H])NCCCCCCNC(=N)NC(=N)Nc1ccc(Cl)cc1)Nc1ccc(Cl)cc1` [chlorhexidine], the “effect against Mutans streptococci” value with Mutans streptococci is “effective”. For the same compound, in the data set on Lactobacilli, the “effect against Lactobacilli” value is given as “no effect”.
